Experimental data from ChEMBL document CHEMBL1201862, “PubChem BioAssay data set” (2004).
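Dose response: 5 concentrations. Exposure: 48 h. Format: 96-well plates. Endpoint: linear interpolation; highest concentration if not reached. The concentration for 50% growth inhibition is given as GI50.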 Calls of active or inactive are those of the source. No stated cut-off is given here; in the data, active = GI50 up to about 1.1 µM and inactive = higher.

Legend:
Test in all cases: DTP human tumour cell line panel, 48 h
[1] = tested on: NCI-H23
[2] = tested on: MOLT-4
[3] = tested on: SNB-19
[4] = tested on: SF-295
[5] = tested on: RPMI-8226
[6] = tested on: DLD-1
[7] = tested on: OVCAR-3
[8] = tested on: HCT-116
[9] = tested on: HCC 2998
[10] = tested on: LOX IMVI
[11] = tested on: U-251
[12] = tested on: HOP-92
[13] = tested on: CAKI-1
[14] = tested on: SK-MEL-5
[15] = tested on: OVCAR-8
[16] = tested on: A498
[17] = tested on: SN12C
[18] = tested on: TK-10
[19] = tested on: HOP-62
[20] = tested on: SF-539
[21] = tested on: SF-268
[22] = tested on: UACC-62
[23] = tested on: 786-0
[24] = tested on: SW-620
[25] = tested on: COLO 205
[26] = tested on: M19-MEL
[27] = tested on: LXFL 529
[28] = tested on: M14
[29] = tested on: CCRF-CEM
[30] = tested on: HT-29
[31] = tested on: ACHN
[32] = tested on: SK-MEL-28
[33] = tested on: UO-31
[34] = tested on: OVCAR-5
[35] = tested on: IGROV-1
[36] = tested on: HCT-15
[37] = tested on: EKVX
[38] = tested on: OVCAR-4
[39] = tested on: UACC-257
[40] = tested on: HOP-18
[41] = tested on: DMS-114
[42] = tested on: HL-60
[43] = tested on: NCI-H226
[44] = tested on: SR
[45] = tested on: KM-20L2
[46] = tested on: SNB-75
[47] = tested on: SNB-78
[48] = tested on: A549
[49] = tested on: Malme-3M
[50] = tested on: NCI-H522
[51] = tested on: DMS-273
[52] = tested on: K562
[53] = tested on: SK-OV-3
[54] = tested on: SK-MEL-2
[55] = tested on: DU-145
[56] = tested on: NCI-H460
[57] = tested on: T47D
[58] = tested on: MDA-MB-231
[59] = tested on: BT-549
[60] = tested on: MDA-MB-435
[61] = tested on: KM12
[62] = tested on: Hs-578T
[63] = tested on: MCF7
[64] = tested on: PC-3
[65] = tested on: NCI/ADR-RES
[66] = tested on: XF498
[67] = tested on: RXF 393

NS(=O)(=O)c1ccc(NC(=O)CC(=O)Nc2ccc(S(N)(=O)=O)cc2)cc1
GI50 [1]: > 100 µM (inactive)
GI50 [2]: > 100 µM (inactive)
GI50 [3]: > 100 µM (inactive)
GI50 [4]: > 100 µM (inactive)
GI50 [5]: > 100 µM (inactive)
GI50 [6]: > 100 µM (inactive)
GI50 [7]: > 100 µM (inactive)
GI50 [8]: > 100 µM (inactive)
GI50 [9]: > 100 µM (inactive)
GI50 [10]: > 100 µM (inactive)
GI50 [11]: > 100 µM (inactive)
GI50 [12]: > 100 µM (inactive)
GI50 [13]: > 100 µM (inactive)
GI50 [14]: > 100 µM (inactive)
GI50 [15]: > 100 µM (inactive)
GI50 [16]: > 100 µM (inactive)
GI50 [17]: > 100 µM (inactive)
GI50 [18]: > 100 µM (inactive)
GI50 [19]: > 100 µM (inactive)
GI50 [20]: > 100 µM (inactive)
GI50 [21]: > 100 µM (inactive)
GI50 [22]: > 100 µM (inactive)
GI50 [23]: > 100 µM (inactive)
GI50 [24]: > 100 µM (inactive)
GI50 [25]: > 100 µM (inactive)
GI50 [26]: > 100 µM (inactive)
GI50 [27]: > 100 µM (inactive)
GI50 [28]: > 100 µM (inactive)
GI50 [29]: > 100 µM (inactive)
GI50 [30]: > 100 µM (inactive)
GI50 [31]: > 100 µM (inactive)
GI50 [32]: > 100 µM (inactive)
GI50 [33]: > 100 µM (inactive)
GI50 [34]: > 100 µM (inactive)
GI50 [35]: > 100 µM (inactive)
GI50 [36]: > 100 µM
GI50 [37]: > 100 µM (inactive)
GI50 [38]: > 100 µM (inactive)
GI50 [39]: > 100 µM (inactive)
GI50 [40]: > 100 µM (inactive)
GI50 [41]: > 100 µM (inactive)
GI50 [42]: > 100 µM (inactive)
GI50 [43]: > 100 µM (inactive)
GI50 [44]: > 100 µM (inactive)
GI50 [45]: > 100 µM (inactive)
GI50 [46]: > 100 µM (inactive)
GI50 [47]: > 100 µM (inactive)
GI50 [48]: > 100 µM (inactive)
GI50 [49]: > 100 µM (inactive)
GI50 [50]: > 100 µM (inactive)
GI50 [51]: > 100 µM (inactive)
GI50 [52]: > 100 µM (inactive)
GI50 [53]: > 100 µM (inactive)
GI50 [54]: > 100 µM (inactive)

CC(=O)O[C@@]12CO[C@@H]1CC(O)[C@@]1(C)C(=O)[C@H](O)C3=C(C)C(O)C[C@@](O)(C(OC(=O)c4ccccc4)C12)C3(C)C (stereo partly specified)
GI50 [1]: 0.869 µM (active)
GI50 [55]: 3.35 µM (inactive)
GI50 [2]: 0.759 µM (active)
GI50 [56]: 1.02 µM (active)
GI50 [3]: 3.3 µM (inactive)
GI50 [4]: 5.32 µM (inactive)
GI50 [5]: 0.519 µM (active)
GI50 [7]: 0.454 µM (active)
GI50 [8]: 0.371 µM (active)
GI50 [9]: 1.72 µM (inactive)
GI50 [10]: 0.839 µM (active)
GI50 [11]: 0.828 µM (active)
GI50 [12]: 22.6 µM (inactive)
GI50 [13]: 24.8 µM (inactive)
GI50 [14]: 6.58 µM (inactive)
GI50 [15]: 3.13 µM (inactive)
GI50 [16]: 5.82 µM (inactive)
GI50 [57]: > 100 µM (inactive)
GI50 [17]: 2.18 µM (inactive)
GI50 [18]: 8.51 µM (inactive)
GI50 [19]: 6.05 µM (inactive)
GI50 [20]: 0.415 µM (active)
GI50 [58]: 4.19 µM (inactive)
GI50 [21]: 3.97 µM (inactive)
GI50 [22]: 0.508 µM (active)
GI50 [59]: 1.26 µM (inactive)
GI50 [23]: 2.9 µM (inactive)
GI50 [24]: 0.448 µM (active)
GI50 [60]: 0.18 µM (active)
GI50 [25]: 0.434 µM (active)
GI50 [26]: 12.8 µM (inactive)
GI50 [28]: 2.59 µM (inactive)
GI50 [29]: 0.454 µM (active)
GI50 [30]: 0.385 µM (active)
GI50 [61]: 0.558 µM (active)
GI50 [31]: 51.2 µM (inactive)
GI50 [33]: 46.1 µM (inactive)
GI50 [62]: 0.252 µM (active)
GI50 [34]: 3.94 µM (inactive)
GI50 [63]: 0.463 µM (active)
GI50 [35]: 1.88 µM (inactive)
GI50 [36]: 24.7 µM
GI50 [64]: 0.881 µM (active)
GI50 [65]: > 100 µM (inactive)
GI50 [37]: 5.62 µM (inactive)
GI50 [38]: > 90.8 µM (inactive)
GI50 [66]: 2.07 µM (inactive)
GI50 [39]: 0.684 µM (active)
GI50 [42]: 0.41 µM (active)
GI50 [43]: > 100 µM (inactive)
GI50 [44]: 1.06 µM (active)
GI50 [45]: 0.679 µM (active)
GI50 [46]: 0.507 µM (active)
GI50 [47]: 15.5 µM (inactive)
GI50 [48]: 3.81 µM (inactive)
GI50 [49]: 2.54 µM (inactive)
GI50 [50]: 0.637 µM (active)
GI50 [51]: 0.472 µM (active)
GI50 [67]: 25 µM (inactive)
GI50 [52]: 0.619 µM (active)
GI50 [53]: 0.767 µM (active)
GI50 [54]: 0.367 µM (active)
